What was measured:
[1] = Stability on storage at room temperature, HPLC analysis of SAM-e concentration; type: physicochemical
Text: (§1) SAM-e-1, 4-butane-disulphonate and chitosan salt of SAM-e 1, 4-butane-disulphonate were stored at room temperature, in a closed, clear glass vial at constant humidity. HPLC analysis done according to Bottligleri, T. (1990) Isocratic high performance liquid chromatographic analysis of S-adenosylmethionine and S-adenosylhomocysteine in animal tissues: the effect of exposure to nitrous oxide. Biomed Chromatogr, 4(6):239-41.
Stability study-of polycation (chitosan) salt of SAM-e tosylate
as §1, with “SAM-e tosylate” for “SAM-e-1, 4-butane-disulphonate”, “tosylate” for “1, 4-butane-disulphonate”

[2] = oral; patients with intrahepatic cholestasis; cited from earlier work
[3] = oral; short term trial; cited from earlier work
[4] = oral; patients with and without liver disease; cited from earlier work
[5] = oral; alcoholic liver cirrhosis; compared with a placebo treated group; cited from earlier work
[6] = preliminary study; cited from earlier work

C[S+](CC[C@H](N)C(=O)[O-])C[C@H]1O[C@@H](n2cnc3c(N)ncnc32)[C@H](O)[C@@H]1O.O=S(=O)(O)CCCCS(=O)(=O)O (stereo partly drawn) [SAM-e-1,4-butane-disulphonate]
deteriorated by (over the period of time) ([1]; Example 10, text, room temperature storage May 11, 2000 to Aug. 22, 2000): 43%
% Change ([1]; Example 10, May 11, 2000 to Aug. 22, 2000, room temperature, closed clear glass vial, constant humidity): −43.9%
Analysis: May 11, 2000 Concentration 1:500 ([1]; Example 10, first analysis May 11, 2000, dilution 1:500, HPLC): 1417.96 nmol/L
Analysis: Aug. 22, 2000 Concentration 1:500 ([1]; Example 10, second analysis Aug. 22, 2000, stored at room temperature, closed clear glass vial, constant humidity, dilution 1:500): 794.41 nmol/L

C[S+](CC[C@H](N)C(=O)[O-])C[C@H]1O[C@@H](n2cnc3c(N)ncnc32)[C@H](O)[C@@H]1O (stereo partly drawn) [SAM-e, S-adenosyl-1-methionine]
pruritus and biochemical markers of cholestasis [2]: improvements in both the pruritus as well as the biochemical markers of cholestasis
clinical effect in primary fibromyalgia [3]: significant improvement
liver glutathione levels [4]: increases in liver glutathione levels
overall mortality and/or progression to liver transplant [5]: 29% vs 12%
cognitive effect in patients with Alzheimer's disease [6]: cognitive improvement

C[S+](CC[C@H](N)C(=O)O)C[C@H]1O[C@@H](n2cnc3c(N)ncnc32)[C@H](O)[C@@H]1O.Cc1ccc(S(=O)(=O)[O-])cc1 (stereo partly drawn) [SAM-e tosylate]
deteriorated by (over the period of time) ([1]; Example 11, text, room temperature storage Dec. 28, 1999 to Apr. 4, 2000): 92.9%
Analysis: Dec. 28, 1999 Concentration 0.5 mg/ml 1:125 ([1]; Example 11, first analysis Dec. 28, 1999, 0.5 mg/ml, dilution 1:125, HPLC): 3492 nmol/L
Analysis: Apr. 4, 2000 Concentration 0.5 mg/ml 1:125 ([1]; Example 11, second analysis Apr. 4, 2000, stored at room temperature, closed clear glass vial, constant humidity, 0.5 mg/ml, 1:125): 247.9 nmol/L
